In article PMC6979384, “Characterization of the plant homeodomain (PHD) reader family for their histone tail interactions” (Epigenetics & Chromatin, 2020):
Blank lines part the entries; values can stand above or below the substance they belong to. Where no end group is shown, it is not given here.

Legend:
Experiment in all cases: Histone peptide microarray
Assay type in all cases: binding, human
CHD5 (PPCC) = settings: arrays performed twice; for Array Heatmap value (peptide array binding signal): CHD5 (PPCC), GST-tagged, n of 4
How it was run: (§1)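 A peptide microarray holding 293 synthetic histone peptides with individual or combinatorial modifications was probed with each GST-PHD protein at 0.5 μM. Values represent mean intensity (±SD) from four replicates.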

TRIM66 (PB) = settings: arrays performed twice; for Array Heatmap value (peptide array binding signal): TRIM66 (PB), GST-tagged, n of 4
How it was run: as §1

KDM5A (3) = settings: arrays performed twice; for Array Heatmap value (peptide array binding signal): KDM5A (3), GST-tagged, n of 4
How it was run: as §1

PHF8 = settings: arrays performed twice; for Array Heatmap value (peptide array binding signal): PHF8, GST-tagged, n of 4
How it was run: as §1

DPF2 (PPC2W2) = settings: arrays performed twice; for Array Heatmap value (peptide array binding signal): DPF2 (PPC2W2), GST-tagged, n of 4
How it was run: as §1

KDM7A = settings: arrays performed twice; for Array Heatmap value (peptide array binding signal): KDM7A, GST-tagged, n of 4
How it was run: as §1

SP140L = settings: arrays performed twice; for Array Heatmap value (peptide array binding signal): SP140L, GST-tagged, n of 4
How it was run: as §1

CHD4 (PPCC) = settings: arrays performed twice; for Array Heatmap value (peptide array binding signal): CHD4 (PPCC), GST-tagged, n of 4
How it was run: as §1

BPTF (PB) = settings: arrays performed twice; for Array Heatmap value (peptide array binding signal): BPTF (PB), GST-tagged, n of 4
How it was run: as §1

KDM4C (TTP) = settings: arrays performed twice; for Array Heatmap value (peptide array binding signal): KDM4C (TTP), GST-tagged, n of 4
How it was run: as §1

MLL5 = settings: arrays performed twice; for Array Heatmap value (peptide array binding signal): MLL5, GST-tagged, n of 4
How it was run: as §1

ING3 = settings: arrays performed twice; for Array Heatmap value (peptide array binding signal): ING3, GST-tagged, n of 4
How it was run: as §1

PHF21A = settings: arrays performed twice; for Array Heatmap value (peptide array binding signal): PHF21A, GST-tagged, n of 4
How it was run: as §1

BAZ2B = settings: arrays performed twice; for Array Heatmap value (peptide array binding signal): BAZ2B, GST-tagged, n of 4
How it was run: as §1

ING2 = settings: arrays performed twice; for Array Heatmap value (peptide array binding signal): ING2, GST-tagged, n of 4
How it was run: as §1

PHF13 = settings: arrays performed twice; for Array Heatmap value (peptide array binding signal): PHF13, GST-tagged, n of 4
How it was run: as §1

PHF2 = settings: arrays performed twice; for Array Heatmap value (peptide array binding signal): PHF2, GST-tagged, n of 4
How it was run: as §1

ING5 = settings: arrays performed twice; for Array Heatmap value (peptide array binding signal): ING5, GST-tagged, n of 4
How it was run: as §1

PHF23 = settings: arrays performed twice; for Array Heatmap value (peptide array binding signal): PHF23, GST-tagged, n of 4
How it was run: as §1

DIDO1 = settings: arrays performed twice; for Array Heatmap value (peptide array binding signal): DIDO1, GST-tagged, n of 4
How it was run: as §1

CHD5 (PCC) = settings: arrays performed twice; for Array Heatmap value (peptide array binding signal): CHD5 (PCC), GST-tagged, n of 4
How it was run: as §1

KDM5B (3) = settings: arrays performed twice; for Array Heatmap value (peptide array binding signal): KDM5B (3), GST-tagged, n of 4
How it was run: as §1

PHRF1 (RP) = settings: arrays performed twice; for Array Heatmap value (peptide array binding signal): PHRF1 (RP), GST-tagged, n of 4
How it was run: as §1

KDM5B (1) = settings: arrays performed twice; for Array Heatmap value (peptide array binding signal): KDM5B (1), GST-tagged, n of 4
How it was run: as §1

KDM5A (1) = settings: arrays performed twice; for Array Heatmap value (peptide array binding signal): KDM5A (1), GST-tagged, n of 4
How it was run: as §1

RAG2 = settings: arrays performed twice; for Array Heatmap value (peptide array binding signal): RAG2, GST-tagged, n of 4
How it was run: as §1

MORC3 (CW) = settings: arrays performed twice; for Array Heatmap value (peptide array binding signal): MORC3 (CW), GST-tagged, n of 4
How it was run: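 Readout is array binding signal, reported as the mean and standard deviation over four replicates. Each purified GST-fused PHD domain was incubated at 0.5 μM with a library of 293 modified histone peptides.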

ING1 = settings: arrays performed twice; for Array Heatmap value (peptide array binding signal): ING1, GST-tagged, n of 4
How it was run: as §1

ING4 = settings: arrays performed twice; for Array Heatmap value (peptide array binding signal): ING4, GST-tagged, n of 4
How it was run: as §1

TAF3 = settings: arrays performed twice; for Array Heatmap value (peptide array binding signal): TAF3, GST-tagged, n of 4
How it was run: as §1

AIRE (PP) = settings: arrays performed twice; for Array Heatmap value (peptide array binding signal): AIRE (PP), GST-tagged, n of 4
How it was run: as §1

- Array Heatmap value (peptide array binding signal) (CHD5 (PPCC)): 0.5556
- Array Heatmap value (peptide array binding signal) (TRIM66 (PB)): 0.5817
- Array Heatmap value (peptide array binding signal) (KDM5A (3)): 0.4688
- Array Heatmap value (peptide array binding signal) (PHF8): 0.3633
- Array Heatmap value (peptide array binding signal) (DPF2 (PPC2W2)): 0.6298
- Array Heatmap value (peptide array binding signal) (KDM7A): 0.3485
- Array Heatmap value (peptide array binding signal) (SP140L): 0.3575
- Array Heatmap value (peptide array binding signal) (CHD4 (PPCC)): 0.5705
- Array Heatmap value (peptide array binding signal) (BPTF (PB)): 0.3564
- Array Heatmap value (peptide array binding signal) (KDM4C (TTP)): 0.482
- Array Heatmap value (peptide array binding signal) (MLL5): 0.5622
- Array Heatmap value (peptide array binding signal) (ING3): 0.4835
- Array Heatmap value (peptide array binding signal) (PHF21A): 0.4543
- Array Heatmap value (peptide array binding signal) (BAZ2B): 0.4646
- Array Heatmap value (peptide array binding signal) (ING2): 0.637
- Array Heatmap value (peptide array binding signal) (PHF13): 0.6322
- Array Heatmap value (peptide array binding signal) (PHF2): 0.5405
- Array Heatmap value (peptide array binding signal) (ING5): 0.3689
- Array Heatmap value (peptide array binding signal) (PHF23): 0.5508
- Array Heatmap value (peptide array binding signal) (DIDO1): 0.6879
- Array Heatmap value (peptide array binding signal) (CHD5 (PCC)): 0.7486
- Array Heatmap value (peptide array binding signal) (KDM5B (3)): 0.4626
- Array Heatmap value (peptide array binding signal) (PHRF1 (RP)): 0.4299
- Array Heatmap value (peptide array binding signal) (KDM5B (1)): 0.6467
- Array Heatmap value (peptide array binding signal) (KDM5A (1)): 0.4698
- Array Heatmap value (peptide array binding signal) (RAG2): 0.2578
- Array Heatmap value (peptide array binding signal) (MORC3 (CW)): 0.3825
- Array Heatmap value (peptide array binding signal) (ING1): 0.5436
- Array Heatmap value (peptide array binding signal) (ING4): 0.4701
- Array Heatmap value (peptide array binding signal) (TAF3): 0.2772
- Array Heatmap value (peptide array binding signal) (AIRE (PP)): 0.4141
Substance: H3K36me2 (21-44): H3 21-44

- Array Heatmap value (peptide array binding signal) (CHD5 (PPCC)): 0.5621
- Array Heatmap value (peptide array binding signal) (TRIM66 (PB)): 0.6062
- Array Heatmap value (peptide array binding signal) (KDM5A (3)): 0.4295
- Array Heatmap value (peptide array binding signal) (PHF8): 0.3546
- Array Heatmap value (peptide array binding signal) (DPF2 (PPC2W2)): 0.6719
- Array Heatmap value (peptide array binding signal) (KDM7A): 0.3622
- Array Heatmap value (peptide array binding signal) (SP140L): 0.3526
- Array Heatmap value (peptide array binding signal) (CHD4 (PPCC)): 0.5871
- Array Heatmap value (peptide array binding signal) (BPTF (PB)): 0.352
- Array Heatmap value (peptide array binding signal) (KDM4C (TTP)): 0.4879
- Array Heatmap value (peptide array binding signal) (MLL5): 0.5803
- Array Heatmap value (peptide array binding signal) (ING3): 0.4991
- Array Heatmap value (peptide array binding signal) (PHF21A): 0.4681
- Array Heatmap value (peptide array binding signal) (BAZ2B): 0.4726
- Array Heatmap value (peptide array binding signal) (ING2): 0.6072
- Array Heatmap value (peptide array binding signal) (PHF13): 0.6462
- Array Heatmap value (peptide array binding signal) (PHF2): 0.5258
- Array Heatmap value (peptide array binding signal) (ING5): 0.3678
- Array Heatmap value (peptide array binding signal) (PHF23): 0.5628
- Array Heatmap value (peptide array binding signal) (DIDO1): 0.7273
- Array Heatmap value (peptide array binding signal) (CHD5 (PCC)): 0.7751
- Array Heatmap value (peptide array binding signal) (KDM5B (3)): 0.4778
- Array Heatmap value (peptide array binding signal) (PHRF1 (RP)): 0.4375
- Array Heatmap value (peptide array binding signal) (KDM5B (1)): 0.6524
- Array Heatmap value (peptide array binding signal) (KDM5A (1)): 0.4698
- Array Heatmap value (peptide array binding signal) (RAG2): 0.2418
- Array Heatmap value (peptide array binding signal) (MORC3 (CW)): 0.351
- Array Heatmap value (peptide array binding signal) (ING1): 0.5613
- Array Heatmap value (peptide array binding signal) (ING4): 0.4583
- Array Heatmap value (peptide array binding signal) (TAF3): 0.2673
- Array Heatmap value (peptide array binding signal) (AIRE (PP)): 0.4385
Substance: H3K36me3 (21-44): H3 21-44

Substance: H3K56ac (52-61): H3 52-61 (RRYQK(Ac)STELL; UniProt P68431 53-62, looked up, fragment)
- Array Heatmap signal, CHD5 (PPCC) (CHD5 (PPCC); sheet "Array Heatmap", GST-tagged CHD5 (PPCC), total replicate number n = 4): 0.5505
- Array Heatmap signal, TRIM66 (PB) (TRIM66 (PB); sheet "Array Heatmap", GST-tagged TRIM66 (PB), total replicate number n = 4): 0.5346
- Array Heatmap signal, KDM5A (3) (KDM5A (3); sheet "Array Heatmap", GST-tagged KDM5A (3), total replicate number n = 4): 0.4545
- Array Heatmap signal, PHF8 (PHF8; sheet "Array Heatmap", GST-tagged PHF8, total replicate number n = 4): 0.3512
- Array Heatmap signal, DPF2 (PPC2W2) (DPF2 (PPC2W2); sheet "Array Heatmap", GST-tagged DPF2 (PPC2W2), total replicate number n = 4): 0.7093
- Array Heatmap signal, KDM7A (KDM7A; sheet "Array Heatmap", GST-tagged KDM7A, total replicate number n = 4): 0.3406
- Array Heatmap signal, SP140L (SP140L; sheet "Array Heatmap", GST-tagged SP140L, total replicate number n = 4): 0.3649
- Array Heatmap signal, CHD4 (PPCC) (CHD4 (PPCC); sheet "Array Heatmap", GST-tagged CHD4 (PPCC), total replicate number n = 4): 0.5636
- Array Heatmap signal, BPTF (PB) (BPTF (PB); sheet "Array Heatmap", GST-tagged BPTF (PB), total replicate number n = 4): 0.3515
- Array Heatmap signal, KDM4C (TTP) (KDM4C (TTP); sheet "Array Heatmap", GST-tagged KDM4C (TTP), total replicate number n = 4): 0.4844
- Array Heatmap signal, MLL5 (MLL5; sheet "Array Heatmap", GST-tagged MLL5, total replicate number n = 4): 0.5378
- Array Heatmap signal, ING3 (ING3; sheet "Array Heatmap", GST-tagged ING3, total replicate number n = 4): 0.475
- Array Heatmap signal, PHF21A (PHF21A; sheet "Array Heatmap", GST-tagged PHF21A, total replicate number n = 4): 0.4604
- Array Heatmap signal, BAZ2B (BAZ2B; sheet "Array Heatmap", GST-tagged BAZ2B, total replicate number n = 4): 0.4578
- Array Heatmap signal, ING2 (ING2; sheet "Array Heatmap", GST-tagged ING2, total replicate number n = 4): 0.6013
- Array Heatmap signal, PHF13 (PHF13; sheet "Array Heatmap", GST-tagged PHF13, total replicate number n = 4): 0.6129
- Array Heatmap signal, PHF2 (PHF2; sheet "Array Heatmap", GST-tagged PHF2, total replicate number n = 4): 0.5355
- Array Heatmap signal, ING5 (ING5; sheet "Array Heatmap", GST-tagged ING5, total replicate number n = 4): 0.365
- Array Heatmap signal, PHF23 (PHF23; sheet "Array Heatmap", GST-tagged PHF23, total replicate number n = 4): 0.5106
- Array Heatmap signal, DIDO1 (DIDO1; sheet "Array Heatmap", GST-tagged DIDO1, total replicate number n = 4): 0.7019
- Array Heatmap signal, CHD5 (PCC) (CHD5 (PCC); sheet "Array Heatmap", GST-tagged CHD5 (PCC), total replicate number n = 4): 0.7293
- Array Heatmap signal, KDM5B (3) (KDM5B (3); sheet "Array Heatmap", GST-tagged KDM5B (3), total replicate number n = 4): 0.4628
- Array Heatmap signal, PHRF1 (RP) (PHRF1 (RP); sheet "Array Heatmap", GST-tagged PHRF1 (RP), total replicate number n = 4): 0.4575
- Array Heatmap signal, KDM5B (1) (KDM5B (1); sheet "Array Heatmap", GST-tagged KDM5B (1), total replicate number n = 4): 0.5943
- Array Heatmap signal, KDM5A (1) (KDM5A (1); sheet "Array Heatmap", GST-tagged KDM5A (1), total replicate number n = 4): 0.4791
- Array Heatmap signal, RAG2 (RAG2; sheet "Array Heatmap", GST-tagged RAG2, total replicate number n = 4): 0.2388
- Array Heatmap signal, MORC3 (CW) (MORC3 (CW); sheet "Array Heatmap", GST-tagged MORC3 (CW), total replicate number n = 4): 0.3491
- Array Heatmap signal, ING1 (ING1; sheet "Array Heatmap", GST-tagged ING1, total replicate number n = 4): 0.5577
- Array Heatmap signal, ING4 (ING4; sheet "Array Heatmap", GST-tagged ING4, total replicate number n = 4): 0.4689
- Array Heatmap signal, TAF3 (TAF3; sheet "Array Heatmap", GST-tagged TAF3, total replicate number n = 4): 0.2638
- Array Heatmap signal, AIRE (PP) (AIRE (PP); sheet "Array Heatmap", GST-tagged AIRE (PP), total replicate number n = 4): 0.4476
